Source: patent publication US20230295197A1, “STAT5 and STAT6 Degraders and Uses Thereof” (REGENTS OF THE UNIVERSITY OF MICHICAN, priority 2022, published 2023)

These compounds were tested against T1, STAT6 (Homo sapiens, UniProt P42226) (assay: Immunoblotting (Western blot) analysis of STAT6 degradation efficiency of degraders in treated cells). Settings: L1236 cells, read-out: DC50 S6 L1236.
T1 construct: endogenous in cells; host or cells: MOLM-16, KU-812, SKNO1, MB231, L1236
T1 sequence (P42226 1-847): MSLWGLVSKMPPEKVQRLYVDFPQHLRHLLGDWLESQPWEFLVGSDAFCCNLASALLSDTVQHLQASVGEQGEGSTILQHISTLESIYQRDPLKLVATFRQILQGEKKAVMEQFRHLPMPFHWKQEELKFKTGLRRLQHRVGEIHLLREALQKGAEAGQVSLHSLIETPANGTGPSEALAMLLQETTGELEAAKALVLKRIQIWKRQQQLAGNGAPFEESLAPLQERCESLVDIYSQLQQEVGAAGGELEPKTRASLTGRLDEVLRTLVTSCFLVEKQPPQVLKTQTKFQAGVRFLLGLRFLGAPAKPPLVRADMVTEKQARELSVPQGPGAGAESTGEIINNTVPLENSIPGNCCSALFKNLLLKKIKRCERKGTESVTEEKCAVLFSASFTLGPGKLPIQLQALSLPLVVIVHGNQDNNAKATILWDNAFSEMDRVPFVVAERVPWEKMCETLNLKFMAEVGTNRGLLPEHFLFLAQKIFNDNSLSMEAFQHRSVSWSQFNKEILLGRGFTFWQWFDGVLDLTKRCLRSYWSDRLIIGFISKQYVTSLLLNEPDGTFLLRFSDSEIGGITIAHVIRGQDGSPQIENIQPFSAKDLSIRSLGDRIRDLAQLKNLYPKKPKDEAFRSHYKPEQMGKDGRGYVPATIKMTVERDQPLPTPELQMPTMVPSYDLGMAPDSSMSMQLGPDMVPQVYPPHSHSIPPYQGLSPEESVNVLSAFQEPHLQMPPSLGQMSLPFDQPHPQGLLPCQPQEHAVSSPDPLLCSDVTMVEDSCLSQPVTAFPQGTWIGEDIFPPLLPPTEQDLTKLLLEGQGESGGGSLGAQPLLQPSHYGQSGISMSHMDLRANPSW
Format: cell-based
Summary of the method: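 Read-out: fluorescent IRDye 680RD/800CW secondaries imaged on an infrared scanner, with band intensities quantified by densitometry and GAPDH serving as loading control. Samples were RIPA lysates, BCA-normalised, from ~1 million treated cells.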
In the case of `Cc1ncsc1-c1ccc([C@H](C)NC(=O)[C@@H]2C[C@@H](O)CN2C(=O)[C@@H](NC(=O)CCNC(=O)CO[C@H]2C[C@@H](C(=O)N3CCO[C@H](c4ccccc4)C3)N(C(=O)[C@@H](NC(=O)c3cc4cc(C(F)(F)P(=O)(O)O)ccc4s3)C(C)(C)C)C2)C(C)(C)C)cc1` [Compound 426, (difluoro(2-(((S)-1-((2S,4S)-4-(2-((3-(((S)-1-((2S,4R)-4-hydroxy-2-(((S)-1-(4-(4-methylthiazol-5-yl)phenyl)ethyl)carbamoyl)pyrrolidin-1-yl)-3,3-dimethyl-1-oxobutan-2-yl)amino)-3-oxopropyl)amino)-2-oxoethoxy)-2-((R)-2-phenylmorpholine-4-carbonyl)pyrrolidin-1-yl)-3,3-dimethyl-1-oxobutan-2-yl)carbamoyl)benzo[b]thiophen-5-yl)methyl)phosphonic acid], the DC50 is reported as over 10 µM.
In the case of `CC(C)(C)[C@H](NC(=O)c1cc2cc(C(F)(F)P(=O)(O)O)ccc2s1)C(=O)N1C[C@@H](NC(=O)CCCC#Cc2ccc3c(c2)CN(C2CCC(=O)NC2=O)C3=O)C[C@H]1C(=O)N1CCO[C@H](c2ccccc2)C1` (stereo partly drawn) [Compound 588, ((2-(((2S)-1-((2S,4S)-4-(6-(2-(2,6-dioxopiperidin-3-yl)-1-oxoisoindolin-5-yl)hex-5-ynamido)-2-((R)-2-phenylmorpholine-4-carbonyl)pyrrolidin-1-yl)-3,3-dimethyl-1-oxobutan-2-yl)carbamoyl)benzo[b]thiophen-5-yl)difluoromethyl)phosphonic acid], the DC50 is reported as over 10 µM.

Same assay, conditions: MB231 cells, read-out: DC50 S6 MB231
Compound `Cc1cc([C@H](C(=O)N2C[C@H](O)C[C@H]2C(=O)N[C@@H](CC(=O)NCCCCCCCCCCNC(=O)CCN(C(=O)[C@@H]2CCCN2C(=O)[C@@H](NC(=O)c2cc3cc(C(F)(F)P(=O)(O)O)ccc3s2)C(C)(C)C)c2ccc(Br)cc2)c2ccc(-c3scnc3C)cc2)C(C)C)on1` [Compound 407, ((2-(((S)-1-((S)-2-((4-bromophenyl)(3-((10-((S)-3-((2S,4R)-4-hydroxy-1-((R)-3-methyl-2-(3-methylisoxazol-5-yl)butanoyl)pyrrolidine-2-carboxamido)-3-(4-(4-methylthiazol-5-yl)phenyl)propanamido)decyl)amino)-3-oxopropyl)carbamoyl)pyrrolidin-1-yl)-3,3-dimethyl-1-oxobutan-2-yl)carbamoyl)benzo[b]thiophen-5-yl)difluoromethyl)phosphonic acid] has a DC50 of over 10 µM.

Same assay, conditions: MOLM-16 cells, class symbols, read-out: DC50 S6 MOLM-16
`CC(C)(C)[C@H](NC(=O)c1cc2cc(C(F)(F)P(=O)(O)O)ccc2s1)C(=O)N1C[C@@H](OCC(=O)NCCCC#Cc2cccc3c2C(=O)N(C2CCC(=O)NC2=O)C3=O)C[C@H]1C(=O)N1CCO[C@H](c2ccccc2)C1` (stereo partly drawn) [Compound 483, ((2-(((2S)-1-((2S,4S)-4-(2-((5-(2-(2,6-dioxopiperidin-3-yl)-1,3-dioxoisoindolin-4-yl)pent-4-yn-1-yl)amino)-2-oxoethoxy)-2-((R)-2-phenylmorpholine-4-carbonyl)pyrrolidin-1-yl)-3,3-dimethyl-1-oxobutan-2-yl)carbamoyl)benzo[b]thiophen-5-yl)difluoromethyl)phosphonic acid] showed a DC50 of 1 to 10 µM.
`CC(C)(C)[C@H](NC(=O)c1cc2cc(C(F)(F)P(=O)(O)O)ccc2s1)C(=O)N1CCN(C(=O)CC(=O)NCCCCC#Cc2cccc3c2C(=O)N(C2CCC(=O)NC2=O)C3=O)C[C@H]1C(=O)N1CCO[C@H](c2ccccc2)C1` (stereo partly drawn) [Compound 513, ((2-(((2S)-1-((2S)-4-(3-((6-(2-(2,6-dioxopiperidin-3-yl)-1,3-dioxoisoindolin-4-yl)hex-5-yn-1-yl)amino)-3-oxopropanoyl)-2-((R)-2-phenylmorpholine-4-carbonyl)piperazin-1-yl)-3,3-dimethyl-1-oxobutan-2-yl)carbamoyl)benzo[b]thiophen-5-yl)difluoromethyl)phosphonic acid] gave a DC50 of over 10 µM.
For `Cc1ncsc1-c1ccc([C@H](C)NC(=O)[C@@H]2C[C@@H](O)CN2C(=O)[C@@H](NC(=O)CCNC(=O)CO[C@H]2C[C@@H](C(=O)N3CCO[C@H](c4ccccc4)C3)N(C(=O)[C@@H](NC(=O)c3cc4cc(C(F)(F)P(=O)(O)O)ccc4s3)C(C)(C)C)C2)C(C)(C)C)cc1` [Compound 426, (difluoro(2-(((S)-1-((2S,4S)-4-(2-((3-(((S)-1-((2S,4R)-4-hydroxy-2-(((S)-1-(4-(4-methylthiazol-5-yl)phenyl)ethyl)carbamoyl)pyrrolidin-1-yl)-3,3-dimethyl-1-oxobutan-2-yl)amino)-3-oxopropyl)amino)-2-oxoethoxy)-2-((R)-2-phenylmorpholine-4-carbonyl)pyrrolidin-1-yl)-3,3-dimethyl-1-oxobutan-2-yl)carbamoyl)benzo[b]thiophen-5-yl)methyl)phosphonic acid], the DC50 was over 10 µM.
With `CC(C)(C)[C@H](NC(=O)c1cc2cc(C(F)(F)P(=O)(O)O)ccc2s1)C(=O)N1C[C@@H](OCCCCCC(=O)N2Cc3cc4c(cc3C2)C(=O)N(C2CCC(=O)NC2=O)C4)C[C@H]1C(=O)N1CCO[C@H](c2ccccc2)C1` (stereo partly drawn) [Compound 590, ((2-(((2S)-1-((2S,4S)-4-((6-(6-(2,6-dioxopiperidin-3-yl)-5-oxo-3,5,6,7-tetrahydropyrrolo[3,4-f]isoindol-2(1H)-yl)-6-oxohexyl)oxy)-2-((R)-2-phenylmorpholine-4-carbonyl)pyrrolidin-1-yl)-3,3-dimethyl-1-oxobutan-2-yl)carbamoyl)benzo[b]thiophen-5-yl)difluoromethyl)phosphonic acid] the DC50 was 1 to 10 µM.
For `CC(C)(C)[C@H](NC(=O)c1cc2cc(C(F)(F)P(=O)(O)O)ccc2s1)C(=O)N1CCN(C(=O)CC(=O)NCCCC#Cc2cccc3c2C(=O)N(C2CCC(=O)NC2=O)C3=O)C[C@H]1C(=O)N1CCO[C@H](c2ccccc2)C1` (stereo partly drawn) [Compound 511, ((2-(((2S)-1-((2S)-4-(3-((5-(2-(2,6-dioxopiperidin-3-yl)-1,3-dioxoisoindolin-4-yl)pent-4-yn-1-yl)amino)-3-oxopropanoyl)-2-((R)-2-phenylmorpholine-4-carbonyl)piperazin-1-yl)-3,3-dimethyl-1-oxobutan-2-yl)carbamoyl)benzo[b]thiophen-5-yl)difluoromethyl)phosphonic acid], the DC50 was 1 to 10 µM.
`CC(C)(C)[C@H](NC(=O)c1cc2cc(C(F)(F)P(=O)(O)O)ccc2s1)C(=O)N1CCN(C(=O)CC(=O)NCCCCC#Cc2ccc3c(c2)C(=O)N(C2CCC(=O)NC2=O)C3=O)C[C@H]1C(=O)N1CCC[C@H](c2ccccc2)C1` (stereo partly drawn) [Compound 528, ((2-(((2S)-1-((2S)-4-(3-((6-(2-(2,6-dioxopiperidin-3-yl)-1,3-dioxoisoindolin-5-yl)hex-5-yn-1-yl)amino)-3-oxopropanoyl)-2-((R)-3-phenylpiperidine-1-carbonyl)piperazin-1-yl)-3,3-dimethyl-1-oxobutan-2-yl)carbamoyl)benzo[b]thiophen-5-yl)difluoromethyl)phosphonic acid] gave a DC50 of over 10 µM.
With `CC(C)(C)[C@H](NC(=O)c1cc2cc(C(F)(F)P(=O)(O)O)ccc2s1)C(=O)N1C[C@@H](NC(=O)CCCC#Cc2ccc3c(c2)CN(C2CCC(=O)NC2=O)C3=O)C[C@H]1C(=O)N1CCO[C@H](c2ccccc2)C1` (stereo partly drawn) [Compound 588, ((2-(((2S)-1-((2S,4S)-4-(6-(2-(2,6-dioxopiperidin-3-yl)-1-oxoisoindolin-5-yl)hex-5-ynamido)-2-((R)-2-phenylmorpholine-4-carbonyl)pyrrolidin-1-yl)-3,3-dimethyl-1-oxobutan-2-yl)carbamoyl)benzo[b]thiophen-5-yl)difluoromethyl)phosphonic acid] the DC50 was over 10 µM.
Work on `CC(C)(C)[C@H](NC(=O)c1cc2cc(C(F)(F)P(=O)(O)O)ccc2s1)C(=O)N1C[C@@H](OCC(=O)NCCCCCCCCCC#Cc2cccc3c2C(=O)N(C2CCC(=O)NC2=O)C3=O)C[C@H]1C(=O)N1CCC[C@H](c2ccccc2)C1` (stereo partly drawn) [Compound 505, ((2-(((2S)-1-((2S,4S)-4-(2-((11-(2-(2,6-dioxopiperidin-3-yl)-1,3-dioxoisoindolin-4-yl)undec-10-yn-1-yl)amino)-2-oxoethoxy)-2-((R)-3-phenylpiperidine-1-carbonyl)pyrrolidin-1-yl)-3,3-dimethyl-1-oxobutan-2-yl)carbamoyl)benzo[b]thiophen-5-yl)difluoromethyl)phosphonic acid] yielded a DC50 of over 10 µM.
Work on `CC(C)(C)[C@H](NC(=O)c1cc2cc(C(F)(F)P(=O)(O)O)ccc2s1)C(=O)N1C[C@@H](OCC(=O)NCCCCCC#Cc2cccc3c2C(=O)N(C2CCC(=O)NC2=O)C3=O)C[C@H]1C(=O)N1CCO[C@H](c2ccccc2)C1` (stereo partly drawn) [Compound 487, ((2-(((2S)-1-((2S,4S)-4-(2-((7-(2-(2,6-dioxopiperidin-3-yl)-1,3-dioxoisoindolin-4-yl)hept-6-yn-1-yl)amino)-2-oxoethoxy)-2-((R)-2-phenylmorpholine-4-carbonyl)pyrrolidin-1-yl)-3,3-dimethyl-1-oxobutan-2-yl)carbamoyl)benzo[b]thiophen-5-yl)difluoromethyl)phosphonic acid] yielded a DC50 of over 10 µM.
With `CC(C)(C)[C@H](NC(=O)c1cc2cc(C(F)(F)P(=O)(O)O)ccc2s1)C(=O)N1Cc2cc(OCC(=O)NCCCC#Cc3cccc4c3C(=O)N(C3CCC(=O)NC3=O)C4=O)ccc2C[C@H]1C(=O)N1CCC[C@H](c2ccccc2)C1` (stereo partly drawn) [Compound 553, ((2-(((2S)-1-((3S)-7-(2-((5-(2-(2,6-dioxopiperidin-3-yl)-1,3-dioxoisoindolin-4-yl)pent-4-yn-1-yl)amino)-2-oxoethoxy)-3-((R)-3-phenylpiperidine-1-carbonyl)-3,4-dihydroisoquinolin-2(1H)-yl)-3,3-dimethyl-1-oxobutan-2-yl)carbamoyl)benzo[b]thiophen-5-yl)difluoromethyl)phosphonic acid] the DC50 was over 10 µM.

Same assay, conditions: MOLM-16 cells, numeric bound, read-out: DC50 S6 MOLM-16
For `CC(C)(C)[C@H](NC(=O)c1cc2cc(C(F)(F)P(=O)(O)O)ccc2s1)C(=O)N1C[C@@H](OCCN2CCC(Nc3cccc4c3CN(C3CCC(=O)NC3=O)C4=O)CC2)C[C@H]1C(=O)N1CCO[C@H](c2ccccc2)C1` (stereo partly drawn) [Compound 605, ((2-(((2S)-1-((2S,4S)-4-(2-(4-((2-(2,6-dioxopiperidin-3-yl)-1-oxoisoindolin-4-yl)amino)piperidin-1-yl)ethoxy)-2-((R)-2-phenylmorpholine-4-carbonyl)pyrrolidin-1-yl)-3,3-dimethyl-1-oxobutan-2-yl)carbamoyl)benzo[b]thiophen-5-yl)difluoromethyl)phosphonic acid], the DC50 was over 0.3 µM.
